Common to all, as to assay: MIC broth microdilution, standard strain
Type in all cases: cell-based
For orientation: Broth dilution looks for growth in wells or tubes with falling amounts of substance.

For one assay, the system named is P. aeruginosa ATCC 15442. The settings on record: Pseudomonas aeruginosa, ATCC15442; P. aeruginosa ATCC 15442, standard strain, 19 h at 35 °C; read-out: minimal inhibitory concentration (MIC). On the procedure:
(§1) All synthesized compounds were tested in vitro against a set of bacteria, including representative standard Gram-positive and Gram-negative rods. Compounds were screened for their minimal inhibitory concentrations (MICs). […] These three compounds were also found to be good inhibitors of the growth of Gram-negative rods: […] The antimicrobial assays were conducted using reference strains of bacteria derived from international microbe collections: American Type Culture Collection (ATCC) and National Collection of Type Culture (NCTC). The following standard strains of bacteria were used: Gram-positive-Staphylococcus aureus NCTC 4163, Staphylococcus aureus ATCC 25923, Staphylococcus aureus ATCC 6538, Staphylococcus aureus ATCC 29213, Staphylococcus epidermidis ATCC 12228, Staphylococcus epidermidis ATCC 35984, Gram-negative: Escherichia coli ATCC 25922, Pseudomonas aeruginosa ATCC 15442. Clinical strains of bacteria used in this study: Gram-positive: Staphylococcus epidermidis 5253, Staphylococcus epidermidis 4243, Staphylococcus aureus […], Staphylococcus aureus […] and Gram-negative: Escherichia coli 520, Escherichia coli 600, Klebsiella pneumoniae 510 and Pseudomonas aeruginosa 659 were obtained from the collection of the Department of Pharmaceutical Microbiology, Medical University of Warsaw, Poland and they were isolated from different biological materials taken from the patients hospitalized in the Warsaw Medical University hospitals. Antimicrobial activity was examined by the minimal inhibitory concentration (MIC) method under standard procedures provided by CLSI with some modifications. MIC was determined by the two-fold serial broth microdilution method in 96-well microtitration plates using Mueller-Hinton II broth medium (Becton Dickinson, Franklin Lakes, NJ, USA). The final inoculum of all studied bacteria was 10^6 CFU/mL (colony forming unit per milliliter). The stock solution of tested compounds was prepared in dimethyl sulfoxide (DMSO) and diluted to a maximum of 1% of solvent content with a sterile medium.

Another assay has as its system S. aureus ATCC 25923. The following applies: Staphylococcus aureus, ATCC25923; S. aureus ATCC 25923, standard strain, 19 h at 35 °C; read-out: minimal inhibitory concentration (MIC). On the procedure: as §1
In the next assay the test system is E. coli ATCC 25922. The settings on record: Escherichia coli, ATCC25922; E. coli ATCC 25922, standard strain, 19 h at 35 °C; read-out: minimal inhibitory concentration (MIC). On the procedure:
as §1

A further assay concerns S. aureus NCTC 4163. The settings on record: Staphylococcus aureus, NCTC4163; S. aureus NCTC 4163, standard strain, 19 h at 35 °C; read-out: minimal inhibitory concentration (MIC). On the procedure: as §1
The subject of a further assay is S. aureus ATCC 6538. The following applies: Staphylococcus aureus, ATCC6538; S. aureus ATCC 6538, standard strain, 19 h at 35 °C; read-out: minimal inhibitory concentration (MIC). On the procedure: (§2) All synthesized compounds were tested in vitro against a set of bacteria, including representative standard Gram-positive and Gram-negative rods. Compounds were screened for their minimal inhibitory concentrations (MICs). […] The antimicrobial assays were conducted using reference strains of bacteria derived from international microbe collections: American Type Culture Collection (ATCC) and National Collection of Type Culture (NCTC). The following standard strains of bacteria were used: Gram-positive-Staphylococcus aureus NCTC 4163, Staphylococcus aureus ATCC 25923, Staphylococcus aureus ATCC 6538, Staphylococcus aureus ATCC 29213, Staphylococcus epidermidis ATCC 12228, Staphylococcus epidermidis ATCC 35984, Gram-negative: Escherichia coli ATCC 25922, Pseudomonas aeruginosa ATCC 15442. Clinical strains of bacteria used in this study: Gram-positive: Staphylococcus epidermidis 5253, Staphylococcus epidermidis 4243, Staphylococcus aureus […], Staphylococcus aureus […] and Gram-negative: Escherichia coli 520, Escherichia coli 600, Klebsiella pneumoniae 510 and Pseudomonas aeruginosa 659 were obtained from the collection of the Department of Pharmaceutical Microbiology, Medical University of Warsaw, Poland and they were isolated from different biological materials taken from the patients hospitalized in the Warsaw Medical University hospitals. […] MIC was determined by the two-fold serial broth microdilution method in 96-well microtitration plates using Mueller-Hinton II broth medium (Becton Dickinson, Franklin Lakes, NJ, USA). The final inoculum of all studied bacteria was 10^6 CFU/mL (colony forming unit per milliliter). The stock solution of tested compounds was prepared in dimethyl sulfoxide (DMSO) and diluted to a maximum of 1% of solvent content with a sterile medium.

The subject of assay [1] is S. epidermidis ATCC 35984. The following applies: Staphylococcus epidermidis, ATCC35984; S. epidermidis ATCC 35984, standard strain, 19 h at 35 °C; read-out: minimal inhibitory concentration (MIC). On the procedure: as §2
Another assay has as its system S. aureus ATCC 29213. The settings on record: Staphylococcus aureus, ATCC29213; S. aureus ATCC 29213, standard strain, 19 h at 35 °C; read-out: minimal inhibitory concentration (MIC). As to the method:
as §2

Assay [2] has as its system S. epidermidis ATCC 12228. The following applies: Staphylococcus epidermidis, ATCC12228; S. epidermidis ATCC 12228, standard strain, 19 h at 35 °C; read-out: minimal inhibitory concentration (MIC). On the procedure:
as §2

≈ marks a conversion by molar mass, not a printed value.

For the compound `CC(C)C12C=CC(C)(CC1)C1C(=O)N(Nc3nnnn3-c3ccc([N+](=O)[O-])cc3)C(=O)C12` (stereo not shown) [Compound 8, 4-Isopropyl-7-methyl-2-((1-(4-nitrophenyl)-1H-tetrazol-5-yl)amino)-3a,4,7,7a-tetrahydro-1H-4,7-ethanoisoindole-1,3(2H)-dione], the MIC in the assay on P. aeruginosa ATCC 15442 is greater than 256 µg/mL; in the assay on S. aureus ATCC 25923, 8 µg/mL (≈ 18.3 µM); in the assay with E. coli ATCC 25922 it was greater than 256 µg/mL; with S. aureus NCTC 4163 it was 8 µg/mL (≈ 18.3 µM); in the assay with S. aureus ATCC 6538 it was 8 µg/mL (≈ 18.3 µM); in assay [1], 16 µg/mL (≈ 36.6 µM). In addition, the MIC came out at 8 µg/mL (≈ 18.3 µM) with S. aureus ATCC 29213 and 16 µg/mL (≈ 36.6 µM) in assay [2].

Consider `CC1=C(C)C2(C)CC1(C)C1C(=O)N(Nc3nnnn3-c3cccc(C(F)(F)F)c3)C(=O)C12` (stereo not shown) [Compound 1, 4,5,6,7-Tetramethyl-2-((1-(3-(trifluoromethyl)phenyl)-1H-tetrazol-5-yl)amino)-3a,4,7,7a-tetrahydro-1H-4,7-methanoisoindole-1,3(2H)-dione], for which the MIC in the assay with P. aeruginosa ATCC 15442 turned out to be 12.8 µg/mL (≈ 28.7 µM); in the assay with S. aureus ATCC 25923, 0.2 µg/mL (≈ 0.448 µM); in the assay with E. coli ATCC 25922, 0.4 µg/mL (≈ 0.896 µM); with S. aureus NCTC 4163, 0.2 µg/mL (≈ 0.448 µM); in the assay on S. aureus ATCC 6538, 0.2 µg/mL (≈ 0.448 µM); in assay [1], 0.2 µg/mL (≈ 0.448 µM). Besides, the MIC with S. aureus ATCC 29213 was found to be 0.2 µg/mL (≈ 0.448 µM); in assay [2], 3.2 µg/mL (≈ 7.17 µM).

`CC1=C(C)C2(C)CC1(C)C1C(=O)N(Nc3nnnn3-c3ccccc3)C(=O)C12` (stereo not shown) [Compound 6, 4,5,6,7-Tetramethyl-2-((1-phenyl-1H-tetrazol-5-yl)amino)-3a,4,7,7a-tetrahydro-1H-4,7-methanoisoindole-1,3(2H)-dione]: the MIC in the assay with P. aeruginosa ATCC 15442 is greater than 256 µg/mL; in the assay on S. aureus ATCC 25923 it was 2 µg/mL (≈ 5.28 µM); in the assay with E. coli ATCC 25922, 8 µg/mL (≈ 21.1 µM); in the assay on S. aureus NCTC 4163, 2 µg/mL (≈ 5.28 µM); in the assay with S. aureus ATCC 6538, 2 µg/mL (≈ 5.28 µM); in assay [1], 4 µg/mL (≈ 10.6 µM). Further, the MIC in the assay on S. aureus ATCC 29213 turned out to be 4 µg/mL (≈ 10.6 µM); in assay [2] it was 16 µg/mL (≈ 42.3 µM).

For `Cc1ccc(-n2nnnc2NN2C(=O)C3C(C2=O)C2(C(C)C)C=CC3(C)CC2)cc1` (stereo not shown) [Compound 10, 4-Isopropyl-7-methyl-2-((1-(p-tolyl)-1H-tetrazol-5-yl)amino)-3a,4,7,7a-tetrahydro-1H-4,7-ethanoisoindole-1,3(2H)-dione], the MIC in the assay on P. aeruginosa ATCC 15442 is greater than 256 µg/mL; in the assay on S. aureus ATCC 25923, 4 µg/mL (≈ 9.84 µM); in the assay on E. coli ATCC 25922 it was 16 µg/mL (≈ 39.4 µM); in the assay on S. aureus NCTC 4163 it was 4 µg/mL (≈ 9.84 µM); with S. aureus ATCC 6538 it was 4 µg/mL (≈ 9.84 µM); in assay [1] it was 8 µg/mL (≈ 19.7 µM). Besides, the MIC came out at 8 µg/mL (≈ 19.7 µM) in the assay on S. aureus ATCC 29213 and 32 µg/mL (≈ 78.7 µM) in assay [2].

As to `CC1=C(C)C2(C)CC1(C)C1C(=O)N(Nc3nnnn3-c3ccccc3Br)C(=O)C12` (stereo not shown) [Compound 3, 2-((1-(2-Bromophenyl)-1H-tetrazol-5-yl)amino)-4,5,6,7-tetramethyl-3a,4,7,7a-tetrahydro-1H-4,7-methanoisoindole-1,3(2H)-dione], the MIC in the assay with P. aeruginosa ATCC 15442 was determined as 16 µg/mL (≈ 35 µM); with S. aureus ATCC 25923, 0.1 µg/mL (≈ 0.219 µM); in the assay on E. coli ATCC 25922 it was 0.4 µg/mL (≈ 0.875 µM); in the assay on S. aureus NCTC 4163 it was 0.1 µg/mL (≈ 0.219 µM); in the assay with S. aureus ATCC 6538, 0.2 µg/mL (≈ 0.437 µM); in assay [1], 0.2 µg/mL (≈ 0.437 µM). Further, the values for the MIC (in the assay on S. aureus ATCC 29213; in assay [2]) were 0.2 µg/mL (≈ 0.437 µM) and 2 µg/mL (≈ 4.37 µM), respectively.

Take `CC(C)C12C=CC(C)(CC1)C1C(=O)N(Nc3nnnn3-c3ccccc3Br)C(=O)C12` (stereo not shown) [Compound 9, 2-((1-(2-Bromophenyl)-1H-tetrazol-5-yl)amino)-4-isopropyl-7-methyl-3a,4,7,7a-tetrahydro-1H-4,7-ethanoisoindole-1,3(2H)-dione]: the MIC in the assay with P. aeruginosa ATCC 15442 was greater than 256 µg/mL; with S. aureus ATCC 25923, 64 µg/mL (≈ 136 µM); with E. coli ATCC 25922, 128 µg/mL (≈ 272 µM); with S. aureus NCTC 4163, 64 µg/mL (≈ 136 µM); in the assay with S. aureus ATCC 6538, 64 µg/mL (≈ 136 µM); in assay [1], 64 µg/mL (≈ 136 µM). Further, the MIC was 64 µg/mL (≈ 136 µM) in the assay on S. aureus ATCC 29213 and 128 µg/mL (≈ 272 µM) in assay [2].

On to `CC1=C(C)C2(C)CC1(C)C1C(=O)N(Nc3nnnn3-c3ccc([N+](=O)[O-])cc3)C(=O)C12` (stereo not shown) [Compound 4, 4,5,6,7-Tetramethyl-2-((1-(4-nitrophenyl)-1H-tetrazol-5-yl)amino)-3a,4,7,7a-tetrahydro-1H-4,7-methanoisoindole-1,3(2H)-dione], for which the MIC with P. aeruginosa ATCC 15442 is greater than 256 µg/mL; with S. aureus ATCC 25923, 8 µg/mL (≈ 18.9 µM); in the assay on E. coli ATCC 25922 it was 256 µg/mL (≈ 605 µM); with S. aureus NCTC 4163, 16 µg/mL (≈ 37.8 µM); in the assay with S. aureus ATCC 6538, 32 µg/mL (≈ 75.6 µM); in assay [1], 32 µg/mL (≈ 75.6 µM). Moreover, the values for the MIC (in the assay on S. aureus ATCC 29213; in assay [2]) were 16 µg/mL (≈ 37.8 µM) and 32 µg/mL (≈ 75.6 µM), respectively.

Consider `CC1=C(C)C2(C)CC1(C)C1C(=O)N(Nc3nnnn3-c3ccccc3Cl)C(=O)C12` (stereo not shown) [Compound 2, 2-((1-(2-Chlorophenyl)-1H-tetrazol-5-yl)amino)-4,5,6,7-tetramethyl-3a,4,7,7a-tetrahydro-1H-4,7-methanoisoindole-1,3(2H)-dione], for which the MIC in the assay with P. aeruginosa ATCC 15442 worked out at 25.6 µg/mL (≈ 62 µM); in the assay on S. aureus ATCC 25923, 0.4 µg/mL (≈ 0.969 µM); in the assay with E. coli ATCC 25922 it was 1.6 µg/mL (≈ 3.88 µM); in the assay with S. aureus NCTC 4163, 0.4 µg/mL (≈ 0.969 µM); in the assay on S. aureus ATCC 6538, 0.4 µg/mL (≈ 0.969 µM); in assay [1], 0.4 µg/mL (≈ 0.969 µM). Further, the MIC in the assay with S. aureus ATCC 29213 came to 0.8 µg/mL (≈ 1.94 µM); in assay [2] it was 3.2 µg/mL (≈ 7.75 µM).

Values taken from PMC8745314, “Novel Tetrazole-Based Antimicrobial Agents Targeting Clinical Bacteria Strains: Exploring the Inhibition of Staphylococcus aureus DNA Topoisomerase IV and Gyrase” (International Journal of Molecular Sciences, 2021).
